Several values for one entry are separate records, joined by “and”; a condition that tells them apart may be missing. Identical values can stand only once. Entries after “also recorded” stand apart in the source; their conditions may differ.
Tests used:
PD-L2 = biological target: T1, PD-L2 (Homo sapiens, UniProt Q9BQ51); assay: Rescue of proliferation inhibited by PD-L2, human PBMC; format: cell-based; conditions: mean ± S.D.; n=3
T1 construct: purchased R&D systems 1224-PL-100
Method: The ability of peptides, peptidomimetics, and small molecules were analyzed for their ability to rescue T-cell proliferation or IFN-γ release from the inhibitory activity of PD-L1 or PD-L2 in a splenocyte/PBMC-based functional assay as per the protocols reported in publication. […] For all in vitro assays, test agent stock was prepared in water and diluted further in the assay media to achieve test concentrations. Each experimental condition was carried out in triplicates. Percent rescue for a given test compound concentration was calculated by normalizing individual percent test agent proliferation or IFN-γ release values to percent anti-CD3 and anti-CD28 antibodies stimulated proliferation or IFN-γ release. EC50 values were derived by plotting transformed data into non-linear fit in sigmoidal dose–response curve using GraphPad Prism software (Version 7).

MC38 colon carcinoma [1] = assay: Antitumor efficacy in MC38 syngeneic model (C57B6); format: in vivo, mouse; conditions: MC38 in C57B6 mice, day 14 of dosing
Method: (§1) For MC38 syngeneic colon carcinoma subcutaneous model, 0.5 × 10^6 MC38 cells (Source: NCI/NIH, kind gift from Dr. Michael Pollack) were injected subcutaneously to the left flank of the C57B6 mouse (In-house) or SCID Beige mice (Source: Harlan, France) on day 1 and dosing was initiated when average tumor volume reached ~100 mm^3. Animals were randomized based on tumor volumes and treated with either a vehicle control or CA-170 at indicated doses for 14 days. Anti-PD1 antibody (Clone J43 from BioXcel) was dosed intraperitoneally at 100 µg/animal once every week. Treatment efficacy was assessed in terms of the effects of the test substances on the tumor volumes of treated mice relative to vehicle-treated mice. Tumor growth curves of test and control groups using the mean tumor volumes were drawn, percent tumor growth inhibition (%TGI) […].

CT26 colon carcinoma = assay: CT26 model, combination with docetaxel; format: in vivo, mouse; conditions: for Individual tumor volumes: CA-170 alone, individual animals; for TGI: CT26 in Balb/c mice, 12 days
Method: Studies in syngeneic models including B16 melanoma metastasis model and CT26 colon carcinoma subcutaneous model were performed as described. For the Docetaxel combination experiment in CT26 model, indicated dosage of docetaxel (Source: Docetere® injection by Dr Reddy’s Laboratories) was dosed intraperitoneally to animals. For the CA-170 combination groups, CA-170 (10 mg/kg/day, oral) was dosed ~10 min after docetaxel. Animal grouping, treatment efficacy assessment and %TGI calculations were performed as mentioned above. For the CT26 experiment with cyclophosphamide, 100 mg/kg of cyclophosphamide was dosed once on day 5 intraperitoneally after cell implantation (first day of dosing for all other groups). Anti-PD1 antibody (Clone J43 from BioXcel) was dosed intraperitoneally at 100 µg/animal once every week.

MC38 colon carcinoma [2] = assay: MC38 tumors in immunodeficient SCID beige mice; format: in vivo, mouse; conditions: for Individual tumor volumes: MC-38 in SCID beige mice, 10mg/kg, 10 mg/kg
Method: as §1

Cannabinoid CB1 = biological target: T2, Cannabinoid CB1 (Homo sapiens, UniProt P21554); assay: CEREP 80 panel binding: Cannabinoid; conditions: read-out: % Inhibition of Control Specific Binding
T2 construct: Eurofins Cerep Panlabs
Method: (§2) CEREP 80 panel assay was carried out by Eurofins Cerep Panlabs facility at France. A series of binding assays was carried out to understand the off-target toxicity of CA-170. CA-170 was tested at 10 μM test concentration in duplicates. Compound binding was calculated as a % inhibition of the binding of a radioactively labeled ligand specific for each target. In each experiment the respective reference compound was tested concurrently with CA-170, and the data were compared with historical values determined at Eurofins. The experiment was accepted in accordance with Eurofins validation standard operating procedure. The results are expressed as a percent of control specific binding; (measured specific binding / control specific binding) × 100 and as a percent inhibition of control specific binding; 100−(measured specific binding / control specific binding) × 100 obtained in the presence of CA-170. The IC50 values (concentration causing a half-maximal inhibition of control specific binding) and Hill coefficients (nH) were determined by non-linear regression analysis of the competition curves generated with mean replicate values using Hill equation curve fitting.

Histamine H1,H2 = assay: CEREP 80 panel binding: Histamine; conditions: 10 µM
Method: as §2

[3] = tested on: Muscarinic M1, M2, M3, M4, M5; assay: CEREP 80 panel binding: Muscarinic; conditions: 10 µM
Method: as §2

PDGF = assay: CEREP 80 panel binding: Growth factors; conditions: 10 µM
Method: as §2

Sigma = assay: CEREP 80 panel binding: Sigma; conditions: 10 µM
Method: as §2

Somatostatin sst = assay: CEREP 80 panel binding: Somatostatin; conditions: 10 µM
Method: as §2

Vasopressin V1a = biological target: T3, Vasopressin V1a (Homo sapiens, UniProt P37288); assay: CEREP 80 panel binding: Vasopressin; conditions: read-out: % Inhibition of Control Specific Binding
T3 construct: Eurofins Cerep Panlabs (contract assay)
Method: as §2

[4] = tested on: Classical Hodgkin lymphoma; set-up: method as in doi:10.1093/annonc/mdz253.035; conditions: Phase 2, Lugano criteria; cited from earlier work
[5] = tested on: advanced (stage 4) non-squamous NSCLC; set-up: method as in doi:10.1093/annonc/mdz253.035; conditions: Phase 2, cited from earlier work

T1 sequence (Q9BQ51 with tags, fused parts or gaps limits assumed): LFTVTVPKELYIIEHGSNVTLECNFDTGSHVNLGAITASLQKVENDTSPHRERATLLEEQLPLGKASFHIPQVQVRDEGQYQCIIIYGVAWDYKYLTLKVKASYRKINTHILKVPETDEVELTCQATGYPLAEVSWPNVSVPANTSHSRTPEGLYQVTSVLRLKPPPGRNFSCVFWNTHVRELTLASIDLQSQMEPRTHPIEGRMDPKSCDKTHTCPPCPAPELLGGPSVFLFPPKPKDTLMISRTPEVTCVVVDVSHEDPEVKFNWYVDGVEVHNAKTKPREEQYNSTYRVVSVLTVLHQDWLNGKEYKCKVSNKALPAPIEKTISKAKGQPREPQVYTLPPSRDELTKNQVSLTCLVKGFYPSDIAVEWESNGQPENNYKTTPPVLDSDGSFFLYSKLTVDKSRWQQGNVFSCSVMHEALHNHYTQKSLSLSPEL
T3 sequence (P37288 whole entry): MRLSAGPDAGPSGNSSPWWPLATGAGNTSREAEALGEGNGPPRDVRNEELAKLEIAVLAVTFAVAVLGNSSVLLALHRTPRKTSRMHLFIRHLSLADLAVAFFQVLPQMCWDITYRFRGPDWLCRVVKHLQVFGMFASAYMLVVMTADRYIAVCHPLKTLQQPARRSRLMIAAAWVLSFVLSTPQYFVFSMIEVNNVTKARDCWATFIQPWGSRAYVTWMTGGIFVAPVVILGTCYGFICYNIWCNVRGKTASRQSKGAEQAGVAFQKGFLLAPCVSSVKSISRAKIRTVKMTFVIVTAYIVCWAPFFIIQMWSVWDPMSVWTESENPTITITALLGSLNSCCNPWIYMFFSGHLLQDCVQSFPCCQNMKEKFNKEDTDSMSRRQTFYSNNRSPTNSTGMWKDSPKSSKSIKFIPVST
T2 sequence (P21554 whole entry): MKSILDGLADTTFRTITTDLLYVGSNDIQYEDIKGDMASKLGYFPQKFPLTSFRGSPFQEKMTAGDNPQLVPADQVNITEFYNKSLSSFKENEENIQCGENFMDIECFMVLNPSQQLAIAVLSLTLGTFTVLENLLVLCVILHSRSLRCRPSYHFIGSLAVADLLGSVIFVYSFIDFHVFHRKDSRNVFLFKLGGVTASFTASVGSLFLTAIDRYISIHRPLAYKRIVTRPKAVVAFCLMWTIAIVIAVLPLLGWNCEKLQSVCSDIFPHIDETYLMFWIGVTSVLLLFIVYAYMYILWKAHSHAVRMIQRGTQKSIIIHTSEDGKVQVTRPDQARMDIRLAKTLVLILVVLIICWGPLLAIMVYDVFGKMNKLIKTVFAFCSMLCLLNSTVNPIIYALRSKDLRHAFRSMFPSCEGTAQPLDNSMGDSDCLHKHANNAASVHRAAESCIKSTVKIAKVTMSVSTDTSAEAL

With `C[C@@H](O)[C@H](NC(=O)N[C@@H](CC(N)=O)c1nc([C@@H](N)CO)no1)C(=O)O` [CA-170] the EC50 (PD-L2) was 51.5 nM, the Individual tumor volumes (MC38 colon carcinoma [1]; CA-170 10 mg/kg PO daily, J43 100 µg/animal/week, 10 mg/kg) was 391.77 mm3 and 388.53 mm3 and 554.94 mm3 and 536.22 mm3 and 252.8 mm3 and 593.87 mm3 and 294.73 mm3 and 377.95 mm3 and 460.46 mm3 and 205.38 mm3 and the tumor growth inhibition (MC38 colon carcinoma [1]; CA-170 10 mg/kg/day orally, PD-1 antibody 100 µg/animal/week) was 43%. The Individual tumor volumes (CT26 colon carcinoma; day 1 of treatment) was 20.16 mm3 and 32.48 mm3 and 34.58 mm3 and 45.49 mm3 and 48.25 mm3 and 58.95 mm3 and 62 mm3 and 77.12 mm3 and 87.62 mm3, the Individual tumor volumes (CT26 colon carcinoma; day 4 of treatment) was 46.73 mm3 and 66.38 mm3 and 43.09 mm3 and 70.24 mm3 and 54.41 mm3 and 118.43 mm3 and 93.26 mm3 and 105.24 mm3 and 188.91 mm3 and the Individual tumor volumes (CT26 colon carcinoma; day 6 of treatment) was 73.66 mm3 and 96.49 mm3 and 125.38 mm3 and 93.3 mm3 and 88 mm3 and 204.79 mm3 and 132.26 mm3 and 118.36 mm3 and 317.89 mm3. For the same molecule, the Individual tumor volumes (CT26 colon carcinoma; day 8 of treatment) was 84.62 mm3 and 174.68 mm3 and 185.55 mm3 and 147.74 mm3 and 147.76 mm3 and 334.98 mm3 and 214.88 mm3 and 178.28 mm3 and 601.81 mm3, the Individual tumor volumes (CT26 colon carcinoma; day 11 of treatment) was 209.65 mm3 and 360.36 mm3 and 315.63 mm3 and 279.2 mm3 and 265.42 mm3 and 706.83 mm3 and 356.89 mm3 and 376.42 mm3 and 728.46 mm3 and the TGI (CT26 colon carcinoma; CA-170 10 mg/kg/day single agent) was 43%. For the same molecule, the TGI (CT26 colon carcinoma; combination CA-170 10 mg/kg and docetaxel 10 mg/kg) was 68%, the Individual tumor volumes (MC38 colon carcinoma [2]; day 0 of treatment) was 18.9 mm3 and 19.8 mm3 and 20.5 mm3 and 23 mm3 and 24.3 mm3 and 24.4 mm3 and 27.8 mm3 and 29.3 mm3 and 36.6 mm3 and 38.8 mm3 and 45.9 mm3 and the Individual tumor volumes (MC38 colon carcinoma [2]; day 4 of treatment) was 165.2 mm3 and 101 mm3 and 33 mm3 and 98.6 mm3 and 101.4 mm3 and 42.7 mm3 and 80.2 mm3 and 120.3 mm3 and 117 mm3 and 120.8 mm3 and 58.8 mm3. The Individual tumor volumes (MC38 colon carcinoma [2]; day 6 of treatment) was 428.8 mm3 and 320.3 mm3 and 190.1 mm3 and 337.3 mm3 and 331.1 mm3 and 174.3 mm3 and 206.7 mm3 and 322.4 mm3 and 214 mm3 and 233.5 mm3 and 207.9 mm3, the Individual tumor volumes (MC38 colon carcinoma [2]; day 8 of treatment) was 764.7 mm3 and 861.8 mm3 and 304.4 mm3 and 735.9 mm3 and 484.9 mm3 and 297 mm3 and 527.3 mm3 and 483.7 mm3 and 349.6 mm3 and 472.6 mm3 and 369.9 mm3 and the Individual tumor volumes (MC38 colon carcinoma [2]; day 11 of treatment) was 1229.8 mm3 and 1458.4 mm3 and 838.9 mm3 and 1334.2 mm3 and 1120.4 mm3 and 912.1 mm3 and 1214.1 mm3 and 1274.2 mm3 and 788.4 mm3 and 1032.8 mm3 and 931.5 mm3. The Individual tumor volumes (MC38 colon carcinoma [2]; day 13 of treatment) was 1679 mm3 and 1958.7 mm3 and 1062 mm3 and 1678.6 mm3 and 1535.8 mm3 and 938 mm3 and 1760.9 mm3 and 1177.1 mm3 and 1641.5 mm3 and 1410.5 mm3, the “tumor growth vs vehicle in immunodeficient mice (in words)” value (MC38 colon carcinoma [2]; SCID beige mice, MC-38, 10 mg/kg/day for 14 days) was “no difference in the tumor volumes; also recorded: no statistically significant difference” and the inhibition at 10 µM (Cannabinoid CB1) was 12%. For the same molecule, the “% Inhibition of Control Specific Binding” value (Histamine H1,H2) was less than 0%, the “% Inhibition of Control Specific Binding” value [3] was no more than 12% and the “% Inhibition of Control Specific Binding” value (PDGF) was 6%. For the same molecule, the “% Inhibition of Control Specific Binding” value (Sigma) was 20%, the “% Inhibition of Control Specific Binding” value (Somatostatin sst) was 1% and the inhibition at 10 µM (Vasopressin V1a) was 1%. The ORR [4] was 30%, the PFS ([5]; advanced (stage 4) non-squamous NSCLC) was 19.6 weeks and the CBR ([5]; daily dose of 400 mg, advanced non-squamous NSCLC) was greater than 85%.

From article PMC8187357 (Communications Biology, 2021)
